Assay results reported in patent publication US20070191431A1, “2-Amino-5-piperidinylimidazolone compounds and use thereof for beta-secretase modulation” (Wyeth, priority 2005, published 2007).

Legend:
[1] = target: human BACE1 (Homo sapiens, UniProt P56817); experiment: BACE-1 fluorescent kinetic assay (Example 88); format: biochemical; conditions: 10 nM enzyme, 25 μM substrate WABC-6, Na-Acetate pH 4.5, room temperature; read-out: BACE1 (IC50 μM)
Description: Evaluation of BACE-1 Binding Affinity of Test Compounds
Fluorescent Kinetic Assay
Dilution and mixing steps: total reaction volume: 100 μL
100 μM substrate dilution in 1× PBS was prepared, and
Fluorescence Readings: Readings at Aex 320 nm and Aem 420 nm are taken every 40 sec for 30 min at room temperature and the linear slope for substrate cleavage rate (vi) determined.

human BACE1, sequence (P56817 46-501): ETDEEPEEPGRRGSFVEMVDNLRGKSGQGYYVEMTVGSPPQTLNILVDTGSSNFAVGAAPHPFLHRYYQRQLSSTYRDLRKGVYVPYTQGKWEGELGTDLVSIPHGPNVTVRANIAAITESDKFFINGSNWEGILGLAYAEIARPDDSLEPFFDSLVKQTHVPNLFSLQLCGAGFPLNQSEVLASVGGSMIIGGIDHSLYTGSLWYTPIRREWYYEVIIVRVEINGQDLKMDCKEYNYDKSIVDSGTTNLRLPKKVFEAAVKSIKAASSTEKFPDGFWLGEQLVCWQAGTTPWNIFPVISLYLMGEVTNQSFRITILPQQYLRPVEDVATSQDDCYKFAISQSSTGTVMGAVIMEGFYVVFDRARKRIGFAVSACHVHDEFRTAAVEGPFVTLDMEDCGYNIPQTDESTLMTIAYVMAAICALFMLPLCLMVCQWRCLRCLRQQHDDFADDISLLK

| SMILES | IC50 [1] | melting point |
| --- | --- | --- |
| COCC(=O)Nc1cccc(C2(C3CCN(Cc4ccccc4)CC3)N=C(N)N(C)C2=O)c1 (stereo not drawn) [Example 59, N{3-[2-Amino-4-(1-benzylpiperidin-4-yl)-1-methyl-5-oxo-4,5-dihydro-1H-imidazol-4-yl]phenyl}-2-methoxyacetamide] | > 3 µM | 120 to 123 °C |
| CN1C(=O)C(c2cccc(-c3cccnc3F)c2)(C2CCN(C(=O)c3ccccc3)CC2)N=C1N (stereo not drawn) [Example 80, 2-amino-5-(1-benzoylpiperidin-4-yl)-5-[3-(2-fluoropyridin-3-yl)phenyl]-3-methyl-3,5-dihydro-4H-imidazol-4-one] | 0.01 to 1 µM | 152 to 154 °C |
| CN1C(=O)C(c2cccc(-c3cncnc3)c2)(C2CCN(C(=O)c3ccccc3)CC2)N=C1N (stereo not drawn) [Example 81, 2-amino-5-(1-benzoylpiperidin-4-yl)-3-methy-5-(3-pyrimidin-5-ylphenyl)-3,5-dihydro-4H-imidazol-4-one] | 0.01 to 1 µM | 156 to 158 °C |
| COc1cncc(-c2cccc(C3(C4CCN(C(=O)c5ccccc5)CC4)N=C(N)N(C)C3=O)c2)c1 (stereo not drawn) [Example 82, 2-amino-5-(1-benzoylpiperidin-4-yl)-5-[3-(5-methoxypyridin-3-yl)phenyl]-3-methyl-3,5-dihydro-4H-imidazol-4-one] | 0.01 to 1 µM | 150 to 153 °C |
| COc1cccc(-c2cccc(C3(C4CCN(C(=O)c5ccccc5)CC4)N=C(N)N(C)C3=O)c2)c1 (stereo not drawn) [Example 83, 2-amino-5-(1-benzoylpiperidin-4-yl)-5-(3′-methoxybiphenyl-3-yl)-3-methyl-3,5-dihydro-4H-imidazol-4-one] | 0.01 to 1 µM | 163 to 165 °C |
| CN1C(=O)C(c2cccc(-c3cccc(F)c3)c2)(C2CCN(C(=O)c3ccccc3)CC2)N=C1N (stereo not drawn) [Example 84, 2-amino-5-(1-benzoylpiperidin-4-yl)-5-(3′-fluorobiphenyl-3-yl)-3-methyl-3,5dihydro-4H-imidazol-4-one] | 0.01 to 1 µM | 165 to 168 °C |
| CN1C(=O)C(c2cccc(-c3cccc(Cl)c3)c2)(C2CCN(C(=O)c3ccccc3)CC2)N=C1N (stereo not drawn) [Example 85, 2-amino-5-(1-benzoylpiperidin-4-yl)-5-(3′-chlorobiphenyl-3-yl)-3-methyl-3,5-dihydro-4H-imidazol-4-one] | 0.01 to 1 µM | 165 to 166 °C |
| CN1C(=O)C(c2cccc(-c3cc(F)ccc3F)c2)(C2CCN(C(=O)c3ccccc3)CC2)N=C1N (stereo not drawn) [Example 86, 2-amino-5-(1-benzoylpiperidin-4-y)-5-(2′,5′-difluorobiphenyl-3-yl)-3-methyl-3,5-dihydro-4H-imidazol-4-one] | 0.01 to 1 µM | > 150 °C (dec.) |
| CN1C(=O)C(c2cccc(-c3cc(F)cc(F)c3)c2)(C2CCN(C(=O)c3ccccc3)CC2)N=C1N (stereo not drawn) [Example 87, 2-amino-5-(1-benzoylpiperidin-4-yl)-5-(3′,5′-difluorobiphenyl-3-yl)-3-methyl-3,5-dihydro-4H-imidazol-4-one] | 0.01 to 1 µM | > 150 °C (dec.) |
